For experiment [1], the target named is T1, human calcium receptor (Homo sapiens, UniProt P41180).
T1 construct: expressed in transfected cells; host or cells: Xenopus laevis oocytes injected with cRNA; the gene was PCR-cloned from human kidney cDNA (Clontech) into pBR322
T1 sequence (P41180 20-1078): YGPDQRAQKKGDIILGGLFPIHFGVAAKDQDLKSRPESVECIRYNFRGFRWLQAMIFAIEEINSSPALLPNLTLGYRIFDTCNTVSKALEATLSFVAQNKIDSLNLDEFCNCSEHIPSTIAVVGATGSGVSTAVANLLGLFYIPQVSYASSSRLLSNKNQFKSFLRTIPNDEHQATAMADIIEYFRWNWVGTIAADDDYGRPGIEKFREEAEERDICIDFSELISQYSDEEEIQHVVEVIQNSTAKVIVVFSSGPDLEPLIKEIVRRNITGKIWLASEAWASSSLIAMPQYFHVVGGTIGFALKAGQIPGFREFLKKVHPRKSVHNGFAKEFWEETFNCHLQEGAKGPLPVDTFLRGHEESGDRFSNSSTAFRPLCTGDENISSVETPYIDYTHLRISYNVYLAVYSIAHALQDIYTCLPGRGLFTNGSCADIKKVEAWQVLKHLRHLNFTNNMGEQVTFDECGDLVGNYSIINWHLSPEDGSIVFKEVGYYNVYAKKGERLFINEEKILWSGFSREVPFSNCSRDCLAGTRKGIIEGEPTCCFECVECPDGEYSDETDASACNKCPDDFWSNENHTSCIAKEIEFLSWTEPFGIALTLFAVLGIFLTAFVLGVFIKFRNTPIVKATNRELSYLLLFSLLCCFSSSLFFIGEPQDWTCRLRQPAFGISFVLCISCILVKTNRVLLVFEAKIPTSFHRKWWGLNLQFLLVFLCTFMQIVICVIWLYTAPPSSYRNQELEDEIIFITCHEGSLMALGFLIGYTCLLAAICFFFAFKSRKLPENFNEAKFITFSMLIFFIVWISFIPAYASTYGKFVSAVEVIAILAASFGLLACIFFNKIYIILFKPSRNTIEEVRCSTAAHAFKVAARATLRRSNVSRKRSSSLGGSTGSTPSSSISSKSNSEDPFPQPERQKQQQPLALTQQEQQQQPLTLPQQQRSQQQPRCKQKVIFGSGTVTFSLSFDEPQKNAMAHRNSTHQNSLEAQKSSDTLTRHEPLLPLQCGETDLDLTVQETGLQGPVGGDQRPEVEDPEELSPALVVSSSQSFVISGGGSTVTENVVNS
Nature of the experiment: Calcium receptor-activating effect: Ca ion concentration-dependent Cl ionic current in Xenopus laevis oocyte expression system. It counts as cell-based. As to conditions: for Activity (lowest concentration at which current was detected): peptide added at 1,000 to 0.1 μM to potential-clamped oocytes, Table 1. The protocol: For evaluation of the calcium receptor-activating effect, a Ca ion concentration-dependent Cl ionic current measuring method using a Xenopus laevis oocyte expression system was used. If each activator is added to Xenopus laevis oocytes expressing the calcium receptor, intracellular Ca ions increase. Then, the Ca ion concentration-dependent Cl channel opens, and the intracellular current value changes as an ionic current. By measuring the change in the intracellular current value, whether the calcium receptor-activating effect is present or not can be determined.
Specifically, the abdomen of Xenopus laevis was opened, and an egg batch was taken out and then treated with a 1% collagenase solution at 20° C. for 2 hours to obtain individual oocytes. Into the oocytes, 50 nl of 1 μg/μl receptor cRNA or 50 nl of sterilized water per oocyte were injected by using a micro glass capillary, and the oocytes were cultured at 18° C. for 2 to 3 days. For the culture, a solution obtained by adding 2 mM pyruvic acid, 10 U/ml penicillin, and 10 μg/ml streptomycin to the solution in Reference Example 2 was used. After the culture, a test solution was added to the oocytes injected with cRNA or sterilized water. Electrophysiological measurement was performed by using an amplifier Geneclamp 500 (manufactured by Axon) and recording software AxoScope 9.0 (manufactured by Axon). The oocytes were membrane potential-clamped at −70 mV by the double electrode potential clamp method, and the intracellular current via the Ca ion concentration-dependent Cl ion was measured. The maximum value of the intracellular current was defined as the response current value.
The calcium receptor-activating effect of L-amino acids was evaluated by using the method described in Reference Example 6. That is, oocytes injected with cRNA of the calcium receptor or sterilized water were prepared, and membrane potential-clamped at −70 mV by the double electrode potential clamp method. To the potential-clamped oocytes, alanine (10 mM), arginine (10 mM), asparagine (10 mM), aspartic acid (10 mM), cysteine (10 mM), glutamine (10 mM), glutamic acid (10 mM), glycine (10 mM), histidine (10 mM), isoleucine (10 mM), leucine (10 mM), lysine (10 mM), methionine (10 mM), phenylalanine (10 mM), proline (10 mM), serine (10 mM), threonine (10 mM), tryptophan (10 mM), tyrosine (10 mM), valine (10 mM), ornithine (10 mM), taurine (10 mM), or hydroxyproline (10 mM) was added, and Ca ion concentration-dependent Cl response current was measured. […] 25, 2000, 97(9): 4814-9.
The calcium receptor-activating effect of D-cysteine was evaluated by using the method described in Reference Example 6. That is, oocytes injected with cRNA of the calcium receptor or sterilized water were prepared, and membrane potential-clamped at −70 mV by the double electrode potential clamp method. To the potential-clamped oocytes, D-cysteine (10 mM), L-cysteine (10 mM), D-tryptophan (10 mM), or L-tryptophan (10 mM) was added, and Ca ion concentration-dependent Cl response current was measured.
The calcium receptor-activating effect of a peptide was evaluated by using the method described in Reference Example 6. That is, oocytes injected with cRNA of the calcium receptor or sterilized water were prepared, and membrane potential-clamped at −70 mV by the double electrode potential clamp method.
The calcium receptor-activating effects of peptides were evaluated in the same manner as that of Reference Example 10. Each of the peptides shown in Table 1 was added to potential-clamped oocytes at 1,000 μM, 300 μM, 100 μM, 30 μM, 10 μM, 3 μM, 1 μM, 0.3 μM, and 0.1 μM, and Ca ion concentration-dependent Cl response current was measured.

Experiment [2] can be described thus: Kokumi-imparting activity intensity, quantitative sensory evaluation test. The note with it: 0.1 g/dl; for Kokumi intensity, Aftertaste / Kokumi intensity, Initial and middle taste: control 0, glutathione 3 points. It counts as in vivo, human.
Description: The quantitative sensory evaluation test was performed as follows. […] It should be noted that a sample, which became acidic after the sample had been dissolved, was adjusted with NaOH to pH 6.8 to 7.2 before use. […] The test was performed with n=3 based on the following sensory evaluation scores: control (0 point) and glutathione addition (3 points).
The quantitative sensory evaluation test was performed as follows. […] It should be noted that a sample, which became acidic after the sample had been dissolved, was adjusted with NaOH to pH 6.8 to 7.2 before use. The test was performed with n=5 based on the following sensory evaluation scores: control (0 point) and glutathione addition (3 points).
The quantitative sensory evaluation test was performed as follows. […] It should be noted that a sample, which became acidic after the sample had been dissolved, was adjusted with NaOH to pH 6.8 to 7.2 before use. The test was performed with n=12 based on the following sensory evaluation scores: control (0 point) and glutathione addition (3 points).
The mark [3] stands for this setting: sodium glutamate, inosine monophosphate, sodium chloride solution, n=3, Table 3.

Consider 42 compounds from patent US8399417B2, “Food” (Ajinomoto Co., Inc., priority 2007, dated 2013).

Starred links: 1 amine or outer side, 2 acyl side, 3 side chain; linkers in the order of their positions; H or OH if unused. Non-standard residues stand in square brackets, D forms with d. No end group written: not given here. γGlu = O=C(O)[C@H](CCC(=O)[*:2])N[*:1]; Orn = NCCC[C@H](N)C(=O)O

In the case of [γGlu]-Val-Glu, the “Activity (lowest concentration at which current was detected)” value (shortened to “Activity”) in experiment [1] was 1,000 μM.

As for Asp-Gly, in experiment [1] (peptide 1 mM, FIG. 4), the “calcium receptor-activating effect (Cl response current)” value (from here on “calcium receptor-activating effect”) is “definite calcium receptor-activating effect”.

For [γGlu]-Met, in experiment [2] (n=3, Table 3), the Taste profile entry was “Thickness and growth are slightly”; the “Kokumi intensity, Aftertaste” value stood at 0.4 points. In addition, the “Kokumi intensity, Initial and middle taste” value in experiment [2] (setting [3]) is 1.5 points. Besides, in experiment [1] (peptide 500 μM, FIG. 4), the “calcium receptor-activating effect” value is “definite calcium receptor-activating effect”.

For the compound [γGlu]-Gly-Gly, in experiment [1], the “Activity” value stood at 30 µM.

γ-Glu-Tau: in experiment [1], the “Activity” value was determined as 300 µM.

As to [γGlu]-Val-Cys, the “Activity” value in experiment [1] stood at 10 µM.

For the compound Glu-Cys, in experiment [1] (peptide 50 μM, FIG. 4), the “calcium receptor-activating effect” value is “definite calcium receptor-activating effect”.

Consider [γGlu]-Gly, for which, in experiment [1] (peptide 500 μM, FIG. 4), the “calcium receptor-activating effect” value is reported as “definite calcium receptor-activating effect”.

Gly-Cys: the “calcium receptor-activating effect” value in experiment [1] (peptide 500 μM, FIG. 4) was “definite calcium receptor-activating effect”.

Take [γGlu]-Val-Lys: the “Activity” value in experiment [1] was 1,000 μM.

For [γGlu]-Val-Met, the “Activity” value in experiment [1] is listed as 1,000 μM.

On to [γGlu]-Ser-Gly, for which, in experiment [1], the “Activity” value amounted to 30 µM.

Regarding `N[C@@H](CCC(=O)N[C@@H](CSN=O)C(=O)NCC(=O)O)C(=O)O` [γ-Glu-Cys(SNO)-Gly], in experiment [1] (peptide 50 μM, FIG. 4), the “calcium receptor-activating effect” value is “definite calcium receptor-activating effect”.

For the compound [γGlu]-Val-Arg, the “Activity” value in experiment [1] is on record as 1,000 μM.

Take γ-Glu-Cys(S-allyl)-Gly: in experiment [1], the “Activity” value was found to be 100 µM.

[γGlu]-Val-Pro: the “Activity” value in experiment [1] worked out at 30 µM.

Take [γGlu]-Val-Ser: the “Activity” value in experiment [1] was 30 µM.

In the case of `N[C@H](CS)C(=O)O` [D-cysteine], the “calcium receptor-activating effect” value in experiment [1] (D-amino acid 10 mM, FIG. 3) was “definite calcium receptor-activating effect”.

With Cys-Gly, the “calcium receptor-activating effect” value in experiment [1] (peptide 1 mM, FIG. 4) is “definite calcium receptor-activating effect”.

With [γGlu]-Cys, in experiment [2] (n=5, Table 4), the “Kokumi intensity, Aftertaste” value is recorded as 2.0 points; the “Kokumi intensity, Initial and middle taste” value amounted to 2.0 points. The “calcium receptor-activating effect” value in experiment [1] (peptide 50 μM, FIG. 4) is “definite calcium receptor-activating effect”.

In the case of γ-Glu-Cys(S-Me)-Gly, in experiment [1], the “Activity” value was 3 µM.

Turning to [γGlu]-Val-Val, the “Activity” value in experiment [1] is reported as 1,000 μM.

In the case of [γGlu]-Val-Phe, the “Activity” value in experiment [1] was found to be 30 µM.

On to `N[C@@H](CS)C(=O)O` [cysteine, reference compound], for which, in experiment [1] (L-amino acid 10 mM, FIG. 2), the “calcium receptor-activating effect” value was “definite calcium receptor-activating effect”.

γ-Glu-Val-Asp: the “Activity” value in experiment [1] was 1,000 μM.

With [γGlu]-Thr, the “calcium receptor-activating effect” value in experiment [1] (peptide 50 μM, FIG. 4) is “definite calcium receptor-activating effect”.

For γ-Glu-t-Leu, the “Activity” value in experiment [1] was found to be 100 µM.

In the case of Leu-Asp, the “calcium receptor-activating effect” value in experiment [1] (peptide 1 mM, FIG. 4) is on record as “definite calcium receptor-activating effect”.

[γGlu]-Val: the “Kokumi intensity, Aftertaste” value in experiment [2] (n=3, Table 3) was determined as 1.0 points; in experiment [2] (n=5, Table 4), 1.0 points. Also, the “Kokumi intensity, Initial and middle taste” value in experiment [2] (n=5, Table 4) stood at 3.0 points; in experiment [2] (setting [3]), 3.0 points. Further, the “calcium receptor-activating effect” value in experiment [1] (peptide 50 μM, FIG. 4) is given as “definite calcium receptor-activating effect”.

For the compound [γGlu]-Ala, the “Kokumi intensity, Aftertaste” value in experiment [2] (n=3, Table 3) was 0.2 points. Also, the “Kokumi intensity, Initial and middle taste” value in experiment [2] (setting [3]) is 0.5 points. Besides, in experiment [1] (peptide 50 μM, FIG. 4), the “calcium receptor-activating effect” value is “definite calcium receptor-activating effect”.

As for [γGlu]-Val-Asn, the “Activity” value in experiment [1] came out at 30 µM.

As for [γGlu]-Val-Gln, in experiment [1], the “Activity” value came out at 10 µM.

Turning to `N[C@@H](Cc1c[nH]c2ccccc12)C(=O)O` [tryptophan, reference compound], in experiment [1] (L-amino acid 10 mM, FIG. 2), the “calcium receptor-activating effect” value was “definite calcium receptor-activating effect”.

Consider Cys-Met, for which the “calcium receptor-activating effect” value in experiment [1] (peptide 1 mM, FIG. 4) is on record as “definite calcium receptor-activating effect”.

For [γGlu]-Val-[Orn], in experiment [1], the “Activity” value was 100 µM.

Turning to `N[C@@H](Cc1c[nH]cn1)C(=O)O` [histidine, reference compound], the “calcium receptor-activating effect” value in experiment [1] (L-amino acid 10 mM, FIG. 2) is listed as “definite calcium receptor-activating effect”.

Turning to `N[C@@H](Cc1ccccc1)C(=O)O` [phenylalanine, reference compound], in experiment [1] (L-amino acid 10 mM, FIG. 2), the “calcium receptor-activating effect” value is recorded as “definite calcium receptor-activating effect”.

[γGlu]-Val-Thr: the “Activity” value in experiment [1] is reported as 1,000 μM.

In the case of [γGlu]-Val-His, the “Activity” value in experiment [1] came out at 100 µM.

Turning to [γGlu]-[γGlu]-Val, the “Activity” value in experiment [1] is 1,000 μM.

γ-Glu-Orn: in experiment [1] (peptide 500 μM, FIG. 4), the “calcium receptor-activating effect” value is given as “definite calcium receptor-activating effect”.

With `N[C@@H](Cc1ccc(O)cc1)C(=O)O` [tyrosine, reference compound], the “calcium receptor-activating effect” value in experiment [1] (L-amino acid 10 mM, FIG. 2) is recorded as “definite calcium receptor-activating effect”.
